Results: paper PMC2730762 (Biochemistry, 2009)
Where a SMILES comes first, the peptide text is derived from it. [ ]: non-standard residue; d: D form. The star is where a group is joined. Sta = CC(C)C[C@H](N)[C@@H](O)CC(=O)O; Isovaleryl = CC(C)CC(=O)*

Experiments:
[1] = tested on: cultured P. falciparum parasites; conditions: cited from earlier work
PfPM1 = PfPM1 (Plasmodium falciparum, UniProt Q7KQM4); assay: biochemical
[2] = biological target: naturally-occurring PfPM1; conditions: cited from earlier work

Sequence of PfPM1 (Q7KQM4 124-452): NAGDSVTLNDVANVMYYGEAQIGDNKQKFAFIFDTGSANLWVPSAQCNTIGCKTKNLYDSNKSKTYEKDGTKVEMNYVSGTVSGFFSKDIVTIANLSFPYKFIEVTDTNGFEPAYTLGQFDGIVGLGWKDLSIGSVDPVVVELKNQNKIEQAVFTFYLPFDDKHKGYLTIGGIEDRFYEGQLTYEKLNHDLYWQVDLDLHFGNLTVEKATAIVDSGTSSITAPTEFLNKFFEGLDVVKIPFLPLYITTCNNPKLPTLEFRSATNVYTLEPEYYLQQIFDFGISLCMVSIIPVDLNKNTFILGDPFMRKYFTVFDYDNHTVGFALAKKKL

Q: With `CC(C)CC(=O)N[C@H](C(=O)N[C@H](C(=O)N[C@@H](CC(C)C)[C@@H](O)CC(=O)N[C@@H](C)C(=O)N[C@@H](CC(C)C)[C@@H](O)CC(=O)O)C(C)C)C(C)C` [pepstatin A] (Isovaleryl-VV[Sta]A[Sta]-OH) as the compound, how does the “killing of cultured P. falciparum parasites” value [1] read?
A: kill cultured P. falciparum parasites

Q: And the Ki (PfPM1)?
A: 1.4 ± 0.2 nM

Q: And the Ki [2]?
A: 0.7 nM
